According to patent US20090048269A1 (AstraZeneca AB, priority 2007, published 2009):

What follows are compounds tested against T1, human ALK5 (Homo sapiens, UniProt P36897) (assay: ALK5 Enzyme Assay 2 (fluorescence polarisation probe displacement)). Settings: read-out: EAA2: activity (μM) using Enzyme Assay 2.
T1 sequence (P36897 162-503): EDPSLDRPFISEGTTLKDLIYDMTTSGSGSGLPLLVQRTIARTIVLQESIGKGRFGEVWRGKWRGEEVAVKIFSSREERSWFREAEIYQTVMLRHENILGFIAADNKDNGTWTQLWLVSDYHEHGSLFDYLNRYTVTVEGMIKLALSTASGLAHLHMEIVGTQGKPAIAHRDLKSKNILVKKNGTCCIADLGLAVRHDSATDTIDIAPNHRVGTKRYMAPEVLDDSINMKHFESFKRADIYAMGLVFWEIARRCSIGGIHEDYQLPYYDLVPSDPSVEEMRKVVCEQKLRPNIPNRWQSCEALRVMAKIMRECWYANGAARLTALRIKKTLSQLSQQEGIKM
Format: binding
Design: 6His tagged human ALK5 (residues162-503) was grown and purified from insect cells; 6His; made in house; host or cells: insect cells
Method: The ability of a compound to bind and inhibit ALK5 can be measured by its capacity to displace a probe molecule from recombinant ALK5 in an in vitro assay. Provided the probe molecule is derivatised with a fluorescent probe or is fluorescent itself, the binding affinity can be measured using Fluorescence Polarisation (FP). […] Assay measurements were performed in 50 mM HEPES pH7.4, 10 mM MgCl2, 1 mM DTT, 0.01% CHAPS in a final assay volume of 12 μl. Briefly 6 μl of ALK5 protein, final concentration of 3 μg/mL, was added to each well of a 384 well assay plate containing 12 nL of each concentration of test compound dissolved in DMSO. 6 μL of a solution containing an ALK5 FP probe ((2Z)-3-(6-{4-[2-({4-[(6-chloro[1,3]dioxolo[4,5-b]pyridin-7-yl)amino]-5-(1-methylethoxy)quinazolin-7-yl}oxy)ethyl]piperazin-1-yl}-6-oxohexyl)-2-[(2E,4E)-5-(3-ethyl-1,1-dimethyl-6,8-disulfo-1H-benzo[e]indolium-2-yl)penta-2,4-dien-1-ylidene]-1,1-dimethyl-6-sulfo-2,3-dihydro-1H-benzo[e]indole-8-sulfonate), final concentration 50 nM, and ATP, final concentration 1 μM.

Row | SMILES | IC50 [µM]
1 | Cc1ccc(Oc2ccnc(Nc3ccc(S(=O)(=O)N(C)C)cc3)c2)c(C)n1 [Example 117, 4-{[4-(2,6-Dimethylpyridin-3-yl)oxypyridin-2-yl]amino}-N,N-dimethylbenzenesulfonamide] | 0.37
2 | Cc1cc(Oc2ccnc(Nc3cccc(C(=O)NCc4ccncc4)c3)c2)c(-c2ccccn2)nc1C [Example 100, 3-{[4-(5,6-Dimethyl-2-pyridin-2-ylpyridin-3-yl)oxypyridin-2-yl]-amino}-N-(pyridin-4-ylmethyl)benzamide] | 0.00576
3 | Cc1ccc(Oc2ccnc(Nc3ccccc3)c2)c(C(=O)NCCc2ccccc2)n1 [Example 95, 3-(2-Anilinopyridin-4-yl)oxy-6-methyl-N-phenethylpyridine-2-carboxamide] | 0.0209
4 | COCCCNS(=O)(=O)c1ccc(Nc2cc(Oc3ccc(C)nc3C)ccn2)cc1 [Example 109, 4-{[4-(2,6-Dimethylpyridin-3-yl)oxypyridin-2-yl]amino}-N-(3-methoxypropyl)benzenesulfonamide] | 0.269
5 | Cc1ccc(Oc2ccnc(Nc3ccc(C(=O)NCCN4CCCCC4)cc3)c2)c(C)n1 [Example 217, 4-{[4-(2,6-Dimethylpyridin-3-yl)oxypyridin-2-yl]amino}-N-(2-piperidin-1-ylethyl)benzamide] | 0.0121
6 | Cc1ccc(Oc2ccnc(Nc3ccc(C(N)=O)cc3)c2)c(-c2ccccc2)n1 [Example 151, 4-{[4-(6-Methyl-2-phenylpyridin-3-yl)oxypyridin-2-yl]amino}-benzamide] | 0.0137
7 | Cc1ccc(Oc2ccnc(Nc3cccc(O)c3)c2)c(C)n1 [Example 126, 3-{[4-(2,6-Dimethylpyridin-3-yl)oxypyridin-2-yl]amino}phenol] | 0.0377
8 | Cc1ccc(Oc2ccnc(Nc3cccc(CN4CCN(C(=O)CCN)CC4)c3)c2)c(C)n1 [Example 189, 3-Amino-1-{4-[(3-{[4-(2,6-dimethylpyridin-3-yl)oxypyridin-2-yl]-amino}phenyl)methyl]piperazin-1-yl}propan-1-one] | 0.0262
9 | Cc1cc(Oc2ccnc(Nc3ccc(C(=O)NCCN)cc3)c2)c(-c2ccccn2)nc1C [Example 200, N-(2-Aminoethyl)-4-{[4-(5,6-dimethyl-2-pyridin-2-ylpyridin-3-yl)oxypyridin-2-yl]amino}benzamide] | 0.00485
10 | Cc1ccc(Oc2ccnc(Nc3ccc(S(=O)(=O)NCCN4CCN(C)CC4)cc3)c2)c(C)n1 [Example 133, 4-{[4-(2,6-Dimethylpyridin-3-yl)oxypyridin-2-yl]amino}-N-[2-(4-methylpiperazin-1-yl)ethyl]benzenesulfonamide] | 0.0932
11 | Cc1ccc(Oc2ccnc(Nc3ccc(C(N)=O)cc3)c2)c(C)n1 [Example 92, 4-{[4-(2,6-Dimethylpyridin-3-yl)oxypyridin-2-yl]amino}benzamide] | 0.0694
12 | CCCCCNC(=O)N1CCN(Cc2cccc(Nc3cc(Oc4ccc(C)nc4C)ccn3)c2)CC1 [Example 181, 4-[(3-{[4-(2,6-Dimethylpyridin-3-yl)oxypyridin-2-yl]amino}-phenyl)methyl]-N-pentylpiperazine-1-carboxamide] | 0.0159
13 | CC(=O)N(C)c1ccc(Nc2cc(Oc3cc(C)c(C)nc3-c3ccccn3)ccn2)cc1 [Example 83, N-(4-{[4-(5,6-Dimethyl-2-pyridin-2-ylpyridin-3-yl)oxypyridin-2-yl]-amino}phenyl)-N-methylacetamide] | 0.0259
14 | Cc1ccc(Oc2ccnc(Nc3cccc(C(=O)N(C4CC4)C4CCN(C)CC4)c3)c2)c(C)n1 [Example 59, N-Cyclopropyl-3-{[4-(2,6-dimethylpyridin-3-yl)oxypyridin-2-yl]-amino}-N-(1-methylpiperidin-4-yl)benzamide] | 0.0214
15 | COc1cc(Nc2cc(Oc3cccnc3-c3ccccc3C(N)=O)ccn2)cc(OC)c1OC [Example 221, 2-(3-{2-[(3,4,5-Trimethoxyphenyl)amino]pyridin-4-yl}oxypyridin-2-yl)benzamide] | 3.02
16 | Cc1ccc(Oc2ccnc(Nc3ccc(C(=O)NCCN4CCCC4=O)cc3)c2)c(C)n1 [Example 141, 4-{[4-(2,6-dimethylpyridin-3-yl)oxypyridin-2-yl]amino}-N-[2-(2-oxopyrrolidin-1-yl)ethyl]benzamide] | 0.0693
17 | CNS(=O)(=O)Cc1ccc(Nc2cc(Oc3cc(C)c(C)nc3-c3ccccn3)ccn2)cc1 [Example 80, 1-(4-{[4-(5,6-Dimethyl-2-pyridin-2-ylpyridin-3-yl)oxypyridin-2-yl]-amino}phenyl)-N-methylmethanesulfonamide] | 0.0169

Row | SMILES | IC50 [µM]
18 | Cc1cc(Oc2ccnc(Nc3ccc(OCCNC(=O)OC(C)(C)C)cc3)c2)c(-c2ccccn2)nc1C [Example 195, tert-Butyl N-[2-(4-{[4-(5,6-dimethyl-2-pyridin-2-ylpyridin-3-yl)-oxypyridin-2-yl]amino}phenoxy)ethyl]carbamate] | 0.0121
19 | CC(=O)Nc1ccc(Nc2cc(Oc3ccc(C)nc3C)ccn2)cc1 [Example 123, N-(4-{[4-(2,6-Dimethylpyridin-3-yl)oxypyridin-2-yl]amino}-phenyl)acetamide] | 0.0324
20 | Cc1ccc(Oc2ccnc(Nc3ccc(CO)cc3)c2)c(C)n1 [Example 154, (4-{[4-(2,6-Dimethylpyridin-3-yl)oxypyridin-2-yl]amino}phenyl)-methanol] | 0.0197
21 | Cc1ccc(Oc2ccnc(Nc3ccccn3)c2)c(-c2ccccn2)n1 [Example 145, 4-(6-Methyl-2-pyridin-2-ylpyridin-3-yl)oxy-N-pyridin-2-yl-pyridin-2-amine] | 0.00825
22 | Cc1ccc(Oc2ccnc(Nc3cccc(CN4CCN(CC(=O)NC5CC5)CC4)c3)c2)c(C)n1 [Example 188, N-cyclopropyl-2-{4-[(3-{[4-(2,6-dimethylpyridin-3-yl)oxypyridin-2-yl]amino}phenyl)methyl]piperazin-1-yl}acetamide] | 0.00691
23 | Cc1ccc(Oc2ccnc(Nc3cccc(CN4CCN(S(C)(=O)=O)CC4)c3)c2)c(C)n1 [Example 175, 4-(2,6-Dimethylpyridin-3-yl)oxy-N-{3-[(4-methylsulfonyl-piperazin-1-yl)methyl]phenyl}pyridin-2-amine] | 0.00611
24 | Cc1ccc(Oc2ccnc(Nc3ccccn3)c2)c(-c2ccco2)n1 [Example 161, 4-[2-(Furan-2-yl)-6-methylpyridin-3-yl]oxy-N-pyridin-2-yl-pyridin-2-amine] | 0.00855
25 | COc1cc(Nc2cc(Oc3ccc(C)nc3C3CCCO3)ccn2)cc(OC)c1OC (stereo not drawn) [Example 167, 4-[6-Methyl-2-(oxolan-2-yl)pyridin-3-yl]oxy-N-(3,4,5-trimethoxy-phenyl)pyridin-2-amine] | 0.0568
26 | COc1cc(Nc2cc(Oc3ccc(C)nc3-c3cncnc3)ccn2)cc(OC)c1OC [Example 173, 4-(6-Methyl-2-pyrimidin-5-ylpyridin-3-yl)oxy-N-(3,4,5-trimethoxyphenyl)pyridin-2-amine] | 0.0966
27 | Cc1ccc(Oc2ccnc(Nc3ccc(OCC(O)CNC(C)C)cc3)c2)c(C)n1 (stereo not drawn) [Example 129, 1-(4-{[4-(2,6-Dimethylpyridin-3-yl)oxypyridin-2-yl]amino}-phenoxy)-3-(propan-2-ylamino)propan-2-ol] | 0.103
28 | Cc1cc(Oc2ccnc(Nc3cccc(C(=O)N4CCCCCC4)c3)c2)c(-c2ccccn2)nc1C [Example 102, Azepan-1-yl-(3-{[4-(5,6-dimethyl-2-pyridin-2-ylpyridin-3-yl)-oxypyridin-2-yl]amino}phenyl)methanone] | 0.0113
29 | Cc1ccc(Oc2ccnc(Nc3ccc(C(N)=O)cc3)c2)c(-c2ccco2)n1 [Example 162, 4-({4-[2-(Furan-2-yl)-6-methylpyridin-3-yl]oxypyridin-2-yl}-amino)benzamide] | 0.0204
30 | Cc1ccc(Oc2ccnc(Nc3cccc(C(=O)NCc4ncc[nH]4)c3)c2)c(C)n1 [Example 63, 3-{[4-(2,6-Dimethylpyridin-3-yl)oxypyridin-2-yl]amino}-N-(1H-imidazol-2-ylmethyl)benzamide] | 0.00823
31 | C#CC(C)(C)NC(=O)c1cccc(Nc2cc(Oc3cc(C)c(C)nc3-c3ccccn3)ccn2)c1 [Example 103, 3-{[4-(5,6-Dimethyl-2-pyridin-2-ylpyridin-3-yl)oxypyridin-2-yl]-amino}-N-(2-methylbut-3-yn-2-yl)benzamide] | 0.0375
32 | Cc1cc(Oc2ccnc(Nc3cccc(NS(C)(=O)=O)c3)c2)c(-c2ccccn2)nc1C [Example 76, N-(3-{[4-(5,6-Dimethyl-2-pyridin-2-ylpyridin-3-yl)oxypyridin-2-yl]-amino}phenyl)methanesulfonamide] | 0.0148
33 | Cc1ccc(Oc2ccnc(Nc3ccc(S(=O)(=O)NCCN4CCS(=O)(=O)CC4)cc3)c2)c(C)n1 [Example 132, 4-{[4-(2,6-Dimethylpyridin-3-yl)oxypyridin-2-yl]amino}-N-[2-(1,1-dioxo-1,4-thiazinan-4-yl)ethyl]benzenesulfonamide] | 0.142
